Measurements: PubChem BioAssay AID2286 (Southern Research Specialized Biocontainment Screening …, 2010)
The source made the active and inactive calls.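 The calls were made as follows: active = minimum cell viability of 80% or lower across the dose range, counted as toxic; inactive = minimum cell viability above 80%.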

Assay: MAGI-CCR5 and HeLa-R5-16 cytotoxicity, dose response, cytotoxicity control for HIV-1 fusion inhibitor project, cell-based, MAGI and MAGI-HeLa co-culture (AID 2286);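 also: cells exposed to compound for at least 64 h before ATP readout; 100% = median of DMSO vehicle wells with no ATP signal meaning 0%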
Conditions: MAGI-CCR5 cells viability, CellTiter-Glo ATP luminescence; for minimum viability: measured here: MAGI minimum viability across doses
[1] = MAGI-HeLa co-culture viability, at 50 µM, stronger effect = lower value
[2] = at 12.5 µM, stronger effect = lower value
[3] = at 3.13 µM, stronger effect = lower value

COc1ccc(O)c(C(=O)c2cc(SCC(=O)O)c3nc4sc5c(c4c(=O)n3c2)CCCC5)c1
viability [1]: 122%
viability (at 50 µM (top of the series)): 96.7% (inactive)
minimum viability [2]: 90.5%

COc1cc(NS(=O)(=O)c2ccc(Nc3nc(-c4ccccc4)cs3)cc2)nc(OC)n1
viability [1]: 82.3%
minimum viability (at 50 µM, stronger effect = lower value): 67.3%

CCOc1cc(/C=N/NC(=O)c2ccc(-c3csc(Nc4ccc(C)cc4)n3)cc2)ccc1OCC(=O)O
viability [1]: 92.6%
viability (at 50 µM (top of the series)): 90.2% (inactive)
minimum viability [2]: 83.3%

O=C(O)CN1C(=O)/C(=C\c2cc(Br)ccc2OCc2ccc(F)cc2)SC1=S
viability [1]: 91.5%
viability (at 50 µM (top of the series)): 97.7% (inactive)
minimum viability (at 50 µM, stronger effect = lower value): 97.7%

O=C(O)COc1ccc(/C=N/NC(=O)c2ccc(-c3csc(Nc4ccc(Cl)cc4)n3)cc2)cc1
viability [1]: 96.5%
viability (at 50 µM (top of the series)): 96.8% (inactive)
minimum viability (at 25 µM, stronger effect = lower value): 83.4%

O=C(COc1ccc(Cl)cc1Cl)Nc1ccc(C(=O)Nc2ccccc2C(=O)O)cc1
viability [1]: 92.6%
minimum viability (at 50 µM, stronger effect = lower value): 71.9%

CCOc1cc(/C=C2\SC(=O)N(CC(=O)Nc3ccccc3F)C2=O)cc([N+](=O)[O-])c1O
viability [1]: 114%
minimum viability (at 50 µM, stronger effect = lower value): 77.4%

Cc1ccc(N2C(=O)/C(=C/c3ccc(CN(CCC#N)S(C)(=O)=O)o3)C(=O)NC2=S)cc1C
viability [1]: 98.6%
viability (at 50 µM (top of the series)): 89.2% (inactive)
minimum viability [2]: 84.4%

O=C(O)CN1C(=O)/C(=C\c2cccc(OCc3ccc(Cl)cc3)c2)SC1=S
viability [1]: 98.9%
viability (at 50 µM (top of the series)): 83.6% (inactive)
minimum viability (at 50 µM, stronger effect = lower value): 83.6%

O=C(O)CCCN1C(=O)/C(=C/c2ccc(-c3nc4ccccc4s3)o2)SC1=S
viability [1]: 99.7%
viability (at 50 µM (top of the series)): 92.1% (inactive)
minimum viability (at 0.1 µM, stronger effect = lower value): 87.2%

O=C(O)c1[nH]c2ccccc2c1C(c1cc(Cl)cc([N+](=O)[O-])c1O)c1c(C(=O)O)[nH]c2ccccc12
viability [1]: 96.1%
viability (at 50 µM (top of the series)): 99.1% (inactive)
minimum viability [2]: 93.4%

CC(C)CS(=O)(=O)C1=NN2C(=N)/C(=C\c3ccc(OC(=O)c4ccco4)cc3)C(=O)N=C2S1
viability [1]: 104%
viability (at 50 µM (top of the series)): 96.6% (inactive)
minimum viability [2]: 85.6%

COc1cc(/C=C2\SC(=O)N(c3ccccc3Cl)C2=O)cc([N+](=O)[O-])c1O
viability [1]: 85.2%
minimum viability (at 50 µM, stronger effect = lower value): 50%

COc1ccccc1NS(=O)(=O)c1cccc(-n2c(O)c(C=Nc3ccccc3C(=O)O)c3ccccc3c2=O)c1
viability [1]: 111%
minimum viability (at 50 µM, stronger effect = lower value): 51.4%

O=C(O)c1ccc(Cl)c(S(=O)(=O)Nc2ccccc2C(=O)Nc2ccc(Cl)cc2)c1
viability [1]: 92.9%
viability (at 50 µM (top of the series)): 82.6% (inactive)
minimum viability (at 50 µM, stronger effect = lower value): 82.6%

O=C(O)CN1C(=O)/C(=C\c2cc(Br)ccc2OCc2ccccc2Cl)SC1=S
viability [1]: 112%
viability (at 50 µM (top of the series)): 106% (inactive)
minimum viability [3]: 94.6%

O=C(O)/C(CC(=O)c1ccc(Cl)cc1)=N/Nc1ccc([N+](=O)[O-])cc1[N+](=O)[O-]
viability [1]: 114%
viability (at 50 µM (top of the series)): 84% (inactive)
minimum viability (at 50 µM, stronger effect = lower value): 84%

COc1cc(/C=C2\C(=N)N3N=C(S(C)(=O)=O)SC3=NC2=O)ccc1OS(=O)(=O)c1ccccc1
viability [1]: 113%
viability (at 50 µM (top of the series)): 91.8% (inactive)
minimum viability (at 50 µM, stronger effect = lower value): 91.8%

Cc1noc(NS(=O)(=O)c2ccc(NC(=O)Nc3ccc(Cl)c(Cl)c3)cc2)c1C
viability [1]: 120%
viability (at 50 µM (top of the series)): 95.5% (inactive)
minimum viability [2]: 93%

O=C(CCN1C(=O)/C(=C/c2ccco2)SC1=S)Nc1ccc(C(=O)O)c(O)c1
viability [1]: 108%
viability (at 50 µM (top of the series)): 90.6% (inactive)
minimum viability [2]: 83%

CCN1C(=O)/C(=C\c2ccc(-c3ccc([N+](=O)[O-])cc3OC)o2)SC1=Nc1cccc(C(=O)O)c1
viability [1]: 106%
viability (at 50 µM (top of the series)): 88.3% (inactive)
minimum viability [3]: 87.5%

CC(C)S(=O)(=O)C1=NSC2=NC(=O)/C(=C\c3ccc(-c4cccc(C(=O)O)c4)o3)C(=N)N21
viability [1]: 90.9%
viability (at 50 µM (top of the series)): 101% (inactive)
minimum viability [3]: 85.2%

COc1cc(C(c2c(C(=O)O)[nH]c3ccccc23)c2c(C(=O)O)[nH]c3ccccc23)ccc1OCc1ccccc1
viability [1]: 90.3%
viability (at 50 µM (top of the series)): 85.8% (inactive)
minimum viability [2]: 82.7%

O=c1[nH]c(=S)[nH]c2c1C(c1ccc(Br)cc1)c1c([nH]c(=S)[nH]c1=O)O2
viability [1]: 116%
viability (at 50 µM (top of the series)): 91.7% (inactive)
minimum viability [2]: 82.5%

CCOc1cc(Br)cc(C(c2c(C(=O)O)[nH]c3ccccc23)c2c(C(=O)O)[nH]c3ccccc23)c1O
viability [1]: 100%
viability (at 50 µM (top of the series)): 87% (inactive)
minimum viability (at 6.25 µM, stronger effect = lower value): 82.9%

O=C(CCN1C(=O)/C(=C\c2ccccc2F)SC1=S)Nc1ccc(C(=O)O)c(O)c1
viability [1]: 114%
viability (at 50 µM (top of the series)): 93.9% (inactive)
minimum viability [3]: 85.5%
